We go through 4 compounds from PMC8279406 (Journal of Medicinal Chemistry, 2021).

The test system of test [1] is recombinant R8102 HSV-1 strain. Briefly: Infection neutralization assay, 293T cells, R8102 HSV-1, β-galactosidase readout. Particulars: increasing concentrations, 1 h prior to infection and 90 min during attachment. The class given is cell-based. The source says: The binding of HSV-1 gH/gL to either αvβ6 or αvβ8 results in the dissociation of gL from the heterodimer, which, in turn, can favor HSV entry into cells.[27] […] R1.302, a nectin1-neutralizing mAb, was used as a positive control. In the first set of experiments, 293T cells, expressing both the αvβ6 and αvβ8 integrins, were alternatively exposed to increasing concentrations of the integrin-binding peptides and R1.302 before and during the infection by the recombinant R8102 HSV-1 strain. This virion carries, indeed, a lacZ reporter gene under the control of the α27 promoter, whose expression analysis allows for readily quantifying the infectivity.[59] […] Remarkably, these preliminary results were in agreement with the known interchangeable and additive roles played by αvβ6 and αvβ8 integrins upon HSV-1 infection.[26]
Figure 3 Inhibition of HSV-1 infection. 293T cells were exposed to increasing concentrations of the indicated peptides for 1 h prior to infection and during virus attachment for another 90 min. Infection was induced using the recombinant R8102 HSV-1 strain and measured after 8 h as β-galactosidase activity, using o-nitrophenyl-D-galactopyranoside (ONPG) as a substrate. The assays were run in triplicate. Bars show standard deviation (SD).
The experiments were performed using 293T cells in 96-well plates with extracellular virions of R8102 at an input multiplicity of infection of 5 PFU/cell. Cells were exposed to increasing concentrations of the peptides for 1 h at 37 °C, and the viral inoculum was added in the presence of peptides for 90 min at 37 °C. After the removal of the inoculum and rinsing with DMEM containing 1% FBS, the cells were incubated without peptides for 8 h. The same protocol was followed for R1.302 mAb that was used as a positive control. The infection was quantified as β-Gal activity using o-nitrophenyl-D-galactopyranoside (ONPG) as a substrate.[86]

Test [2] deals with recombinant K26GFP HSV-1 strain. Briefly: Infection neutralization assay, transfected J cells, K26GFP HSV-1, EGFP expression. The class given is cell-based. To be noted: all of the examined J cell samples, 700 μM. The source says: To this aim, we selected the J cells, which are negative for gD receptors and therefore cannot be infected by HSV-1 unless gD cognate receptors (i.e., nectin1) are transgenically expressed. […] In particular, J cells were transfected with low amounts of nectin1 plasmid, plus either αvβ6 or αvβ8 integrin plasmid or both, and then infected with the recombinant K26GFP HSV-1 strain. Indeed, the capsid protein ICP26 of this strain is fused to the green fluorescent protein (GFP),[60] whose cellular expression can be used to measure the viral infection. Thus, the K26GFP entry in J cells after compound treatment was evaluated using fluorescent microscopy (Figure 4A–T), and the enhanced green fluorescent protein (EGFP) expression was quantified using flow cytometry as the mean fluorescence intensity (MFI) of gated cells (Figure 4U). […] In parallel, we also evaluated the HSV infection in J cells expressing nectin1 plus either αvβ6 or αvβ8 alone.
J cells were transfected with a low amount (75 ng of DNA/24 well) of nectin1 alone (A–E), or with the same amount of nectin1 plus αvβ6 integrin (300 ng DNA/24 well) (F–J), or plus αvβ8 integrin (300 ng DNA/24 well) (K–O), or plus both the integrin receptors (P–T). […] The cells were infected with K26GFP. The nonpenetrated virus was inactivated by an acid wash. Infectivity was measured at 16 h after infection as EGFP expression. (A)–(T) panels show the EGFP expression in each sample for a typical experiment. (U) K26GFP infection was quantified as EGFP protein expression in the flow cytometry assay as the mean fluorescence intensity (MFI) of gated cells. Histograms represent the average of triplicates ± SD.
In other experiments, J cells were transfected with low amounts of plasmids encoding nectin1 (75 ng of DNA/24 well), plus or minus plasmids encoding αv + β6 or αv + β8 integrins (300 ng of DNA/24 well) or together by means of Lipofect 2000 (Life Technologies). The total amount of transfected plasmid DNA was made equal (675 ng/24 well) by the addition of Erb-2 plasmid DNA. […] Following infection, the unpenetrated virus was inactivated by means of an acid wash (40 mM citric acid, 10 mM KCl, 135 mM NaCl, pH 3),[87] and the cells were incubated for a further 16 h in the absence of the peptides or antibody. The extent of infection was assessed through EGFP expression.
Cytofluorimetric analyses were performed using an AccuriC6 flow cytometer (Becton Dickinson). A least 10 000 events were acquired for each sample. Microphotography of the inhibition experiment was conducted using a Nikon Eclipse Ni microscope.

Another test addresses T1, human αvβ6 integrin (Homo sapiens, UniProt P06756+P18564).
T1 construct: using immobilized ECM protein and soluble integrin; purchased R&D Systems (Biotechne brand) 3817-AV
The test is described as follows: LAP(TGF-β1)-αvβ6 competitive solid-phase ELISA binding assay. Particulars: immobilized LAP, soluble integrin. As for the experimental part:
(§1) The affinity and selectivity of the integrin peptide ligands were ascertained according to a modified method previously reported by some of us.[33],[47] The binding was determined in a competitive solid-phase binding assay using extracellular matrix proteins, soluble integrins, and pertinent integrin-specific antibodies in an enzyme-linked immunosorbent assay (ELISA).
A flat-bottom 96-well ELISA plate was coated overnight at 4 °C with 100 μL/well of 0.4 μg/mL LAP previously diluted in carbonate buffer (15 mM Na2CO3, 35 mM NaHCO3, pH 9.6). Afterward, each well was then washed three times with 200 μL of PBS-T buffer (137 mM NaCl, 2.7 mM KCl, 10 mM Na2HPO4, 2 mM KH2PO4, 0.01% Tween 20, pH 7.4) and blocked for 1 h at room temperature with 150 μL/well TSB buffer (20 mM Tris–HCl, 150 mM NaCl, 1 mM CaCl2, 1 mM MgCl2, 1 mM MnCl2, pH 7.5, 1% BSA). Then, each well was washed three times with 200 μL of PBS-T.
Equal volumes (50 μL) of the internal standard (or test compounds) were mixed with 0.5 μg/mL human integrin αvβ6 (50 μL) giving a final dilution series in TSB buffer of 0.00064–10 μM for the inhibitors and 0.25 μg/mL for integrin αvβ6. These solutions (100 μL/well) were added to the flat-bottom ELISA plate and incubated for 1 h at room temperature. The solutions were discarded from the wells, and the plate was washed three times with PBS-T buffer (3 × 200 μL). […] The solutions were discarded from the wells, and the plate was washed three times with PBS-T (3 × 200 μL). The binding assay was developed by adding 50 μL/well of the 3,3′,5,5′-tetramethylbenzidine (TMB) liquid substrate system and incubating for 1 min at room temperature. The reaction was stopped by adding 50 μL/well of 3 M H2SO4. The peroxidase product formation was detected by measuring the absorbance at […] using a plate reader (Tecan SpectraFLUOR plus, Männedorf, Switzerland). Each compound concentration was tested in duplicate, and the resulting inhibition curves were analyzed using OriginPro 7.5G software; the inflection point describes the IC50 value. Each plate contained a linear peptide ([…]) as the internal standard.[63]
(ELISA stands for enzyme-linked immunosorbent assay.)

Another test has as its target T2, human αvβ8 integrin (Homo sapiens, UniProt P06756+P26012).
T2 construct: purchased R&D Systems (Biotechne brand) 4135-AV
Briefly: LAP(TGF-β1)-αvβ8 competitive solid-phase ELISA binding assay. Particulars: competitive ELISA, immobilized LAP, soluble integrin. The method, then: as §1
The experimental procedure is as described for the αvβ6 assay, except for the following modifications. The plates were coated, washed, and blocked as described above. Soluble integrin αvβ8 was mixed with an equal volume of serially diluted inhibitors resulting in a final integrin concentration of 0.25 μg/mL and 0.0032–10 μM for the inhibitors. The primary and secondary antibodies are the same as in the integrin αvβ6 assay. Visualization and analysis were performed as described above. Each plate contained a linear peptide ([…]) as the internal standard.[3]

Each structure is given as a SMILES string.

On to `CC(C)[C@H]1C(=O)N[C@@H](CCCNC(=N)N)C(=O)NCC(=O)N[C@@H](CC(=O)O)C(=O)N[C@H](Cc2ccccc2)C(=O)N1C` [cilengitide, reference compound], for which the “effect on HSV-1 infection (in words)” value in test [1] was “no alteration in the HSV entry process”. Also, in test [2], the “effect on HSV entry (in words)” value was “no effect”.

Broadly, the IC50 is the point on the concentration scale where inhibition reaches its midpoint. A lower IC50 goes with greater potency. Turning to `CN1C(=O)CC[C@@H](C(N)=O)NC(=O)[C@H](C2CCCCC2)NC(=O)[C@H](CC(=O)O)NC(=O)CNC(=O)[C@@H]1CCCNC(=N)N` [compound 2, [(NMe)Arg-Gly-Asp-Chg-Glu]-CONH2], the figures for the IC50 at human αvβ6 integrin and on human αvβ8 integrin were 105 ± 8 nM and 2.25 ± 0.089 µM, respectively.

Consider `CN1CC(=O)N[C@@H](CC(=O)O)C(=O)N[C@@H](C2CCCCC2)C(=O)N[C@H](C(N)=O)CCC(=O)N[C@@H](CCCNC(=N)N)C1=O` [compound 3, [Arg-(NMe)Gly-Asp-Chg-Glu]-CONH2], for which the results for the IC50 on human αvβ6 integrin and on human αvβ8 integrin were 211 ± 26 nM and 3.32 ± 0.122 µM, respectively.

On to `CN1C(=O)[C@H](CC(=O)O)NC(=O)CNC(=O)[C@H](CCCNC(=N)N)NC(=O)CC[C@@H](C(N)=O)NC(=O)[C@@H]1C1CCCCC1` [compound 5, [Arg-Gly-Asp-(NMe)Chg-Glu]-CONH2], for which the half-inhibitory concentration (IC50) on human αvβ6 integrin is above 5000 nM; at human αvβ8 integrin, above 5 µM.
